This note sets out measurements from patent US20050106639A1, “Method for quantification of AKT protein expression” (Ventana Medical Systems, Inc., priority 2000, published 2005).

Holding throughout (format): cell-based
Test [1] deals with total AKT (AKT-1 plus AKT-2). Kind of test: Western blot of activated (phosphorylated) total AKT in HER-2/neu over-expressing cells. The settings on record: SKBR3, BR474, AU565 cells, Heregulin 10 ng/ml or Herceptin 20 mg/ml. How it is done:
(§1) MDA-MB-435 and MDA-MB-435/HER-2 cells were obtained from Dr. Yu at the UTMD Anderson Cancer Center, Houston, Tex. Cells were grown in RPMI 1640 supplemented as above in 8% CO2 at 37° C. Western blotting was done as follows. Cells were lysed in lysis buffer (50 mM Tris-HCl, pH 7.4, 150 mM sodium chloride, 1 mM EDTA, 1% Nonidet P-40, 1 mM sodium orthovanadate, 1 mM sodium fluoride, 1 mM phenylmethylsulfonyl fluoride, 2 ug/ml pepstatin, 2 ug/ml leupeptin, 2 ug/ml aprotinin), centrifuged at 4° C. for 5 min at 6500 g, and protein concentration was determined with a BioRad Protein Assay Kit (BioRad, Hercules, Cailf.). Proteins were separated by electrophoresis using a Bis-Tris NuPAGE system with 1× MOPS running buffer (Novex, San Diego, Cailf.) and transferred to Hybond C-extra membrane (Amersham Pharmacia Biotech, Piscataway, N.J.). Membranes were blocked with non-fat dry milk, incubated with the appropriate antibodies, washed with PBS (phosphate buffered saline) and incubated with horseradish peroxidase-conjugated secondary antibody. […]
(§2) The activated (phosphorylated) state of total AKT (AKT-1 plus AKT-2) in cells over-expressing HER-2/neu was measured to study the functional significance of c-akt in HER-2/neu over-expressing cells and cancers. […] Activated AKT was determined by antibodies that specifically recognize the phosphorylated state of AKT protein. […]
Background: Immunoblotting shows a protein as a band on a membrane.

Another test deals with AKT-2. Kind of test: Immunoprecipitation and anti-phospho-Akt Western blot, AKT-2. How it is done: as §1, §2
Another test concerns AKT-1. Kind of test: Immunoprecipitation and anti-phospho-Akt Western blot, AKT-1. How it is done:
as §1, §2

Where [2] appears, read: SKBR3, BR474, AU565 cells, Heregulin 10 ng/ml or Herceptin 20 mg/ml, Western blot.

As for Heregulin, the “phosphorylation of total AKT” value in test [1] is “increased”. The “level of AKT-2 phosphorylation after treatment” value in the test with AKT-2 (setting [2]) is “remained high”. In addition, the “phosphorylated state of AKT-2” value with AKT-2 (exposure for 3 days) was “did not affect”. In addition, the AKT-1 phosphorylation result in the test on AKT-1 (setting [2]) is “increased”. The “phosphorylated state of AKT-1” value in the test on AKT-1 (exposure for 3 days) is recorded as “down-regulation”.
